Source: the supplement of paper PMC10307832

How the values were obtained:
Assay in all cases: relative viability (nuclei count vs DMSO), 5 days (fraction); higher = more cells survive
LCLC-103H = test system: LCLC-103H
In short: (§1)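 Each reported value is a median over duplicate plates. It expresses relative viability: treated-well nuclei count divided by vehicle-well nuclei count. Lung cancer cell lines in 1536-well plates were dosed by pin tool a day after seeding, alone with one drug or with a fixed anchor-drug dose plus five library-drug doses (not always all listed) in √10 steps, and nuclei were counted after 5 days.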

Calu-6 = test system: Calu-6
In short: as §1

UMC-11 = test system: UMC-11
In short: as §1

NCI-H1703 = test system: NCI-H1703
In short: as §1

HCC-15 = test system: HCC-15
In short: as §1

NCI-H1299 = test system: NCI-H1299
In short: as §1

IA-LM = test system: IA-LM
In short: as §1

A549 = test system: A549
In short: as §1

EBC-1 = test system: EBC-1
In short: as §1

NCI-H1623 = test system: NCI-H1623
In short: as §1

NCI-H522 = test system: NCI-H522
In short: as §1

NCI-H1648 = test system: NCI-H1648
In short: as §1

Molecule NC(=O)Nc1cc(-c2cccc(F)c2)sc1C(=O)N[C@H]1CCCNC1 [AZD7762] + COc1cc2c(Oc3ccc(NC(=O)C4(C(=O)Nc5ccc(F)cc5)CC4)cc3F)ccnc2cc1OCCCN1CCOCC1 [Foretinib] (partner 0.25 µM) has a relative viability (LCLC-103H; first compound 0.01 µM) of 0.815, a relative viability (LCLC-103H; first compound 0.03162 µM) of 0.829 and a relative viability (LCLC-103H; first compound 0.1 µM) of 0.82. The relative viability (LCLC-103H; first compound 0.3162 µM) was 0.764, the relative viability (LCLC-103H; first compound 1 µM) was 0.823 and the relative viability (Calu-6; first compound 0.01 µM) was 0.805. For the same molecule, the relative viability (Calu-6; first compound 0.03162 µM) was 0.83, the relative viability (Calu-6; first compound 0.1 µM) was 0.831 and the relative viability (Calu-6; first compound 0.3162 µM) was 0.264. It also gave a relative viability (Calu-6; first compound 1 µM) of 0.0933, a relative viability (UMC-11; first compound 0.01 µM) of 1.04 and a relative viability (UMC-11; first compound 0.03162 µM) of 1.1. It also gave a relative viability (UMC-11; first compound 0.1 µM) of 1.11, a relative viability (UMC-11; first compound 0.3162 µM) of 0.765 and a relative viability (UMC-11; first compound 1 µM) of 0.384. The relative viability (NCI-H1703; first compound 0.01 µM) was 0.398, the relative viability (NCI-H1703; first compound 0.03162 µM) was 0.34 and the relative viability (NCI-H1703; first compound 0.1 µM) was 0.348. For the same molecule, the relative viability (NCI-H1703; first compound 0.3162 µM) was 0.292, the relative viability (NCI-H1703; first compound 1 µM) was 0.174 and the relative viability (HCC-15; first compound 0.01 µM) was 1.06. It also gave a relative viability (HCC-15; first compound 0.03162 µM) of 0.995, a relative viability (HCC-15; first compound 0.1 µM) of 0.993 and a relative viability (HCC-15; first compound 0.3162 µM) of 1.06. It also gave a relative viability (HCC-15; first compound 1 µM) of 0.983, a relative viability (NCI-H1299; first compound 0.01 µM) of 1.09 and a relative viability (NCI-H1299; first compound 0.03162 µM) of 1.15. The relative viability (NCI-H1299; first compound 0.1 µM) was 1.09, the relative viability (NCI-H1299; first compound 0.3162 µM) was 1.07 and the relative viability (NCI-H1299; first compound 1 µM) was 0.622. For the same molecule, the relative viability (IA-LM; first compound 0.01 µM) was 1.44, the relative viability (IA-LM; first compound 0.03162 µM) was 1.29 and the relative viability (IA-LM; first compound 0.1 µM) was 1.48. For the same molecule, the relative viability (IA-LM; first compound 0.3162 µM) was 1.29, the relative viability (IA-LM; first compound 1 µM) was 0.59 and the relative viability (A549; first compound 0.01 µM) was 1.02. For the same molecule, the relative viability (A549; first compound 0.03162 µM) was 0.928, the relative viability (A549; first compound 0.1 µM) was 0.942 and the relative viability (A549; first compound 0.3162 µM) was 0.837. It also gave a relative viability (A549; first compound 1 µM) of 0.259, a relative viability (EBC-1; first compound 0.01 µM) of 0.101 and a relative viability (EBC-1; first compound 0.03162 µM) of 0.0952. The relative viability (EBC-1; first compound 0.1 µM) was 0.105, the relative viability (EBC-1; first compound 0.3162 µM) was 0.119 and the relative viability (EBC-1; first compound 1 µM) was 0.116. For the same molecule, the relative viability (NCI-H1623; first compound 0.01 µM) was 0.874, the relative viability (NCI-H1623; first compound 0.03162 µM) was 0.821 and the relative viability (NCI-H1623; first compound 0.1 µM) was 1. It also gave a relative viability (NCI-H1623; first compound 0.3162 µM) of 0.96 and a relative viability (NCI-H1623; first compound 1 µM) of 0.664.

NC(=O)Nc1cc(-c2cccc(F)c2)sc1C(=O)N[C@H]1CCCNC1 [AZD7762] + COc1cccc2cc(-c3nc([C@H]4CC[C@H](C(=O)O)CC4)n4ncnc(N)c34)[nH]c12 [OSI-027] (partner 0.5 µM) was tested, and the relative viability (LCLC-103H; first compound 0.01 µM) was 0.451, the relative viability (LCLC-103H; first compound 0.03162 µM) was 0.471 and the relative viability (LCLC-103H; first compound 0.1 µM) was 0.427. The relative viability (LCLC-103H; first compound 0.3162 µM) was 0.392, the relative viability (LCLC-103H; first compound 1 µM) was 0.341 and the relative viability (UMC-11; first compound 0.01 µM) was 0.484. The relative viability (UMC-11; first compound 0.03162 µM) was 0.442, the relative viability (UMC-11; first compound 0.1 µM) was 0.43 and the relative viability (UMC-11; first compound 0.3162 µM) was 0.33. For the same molecule, the relative viability (UMC-11; first compound 1 µM) was 0.241, the relative viability (HCC-15; first compound 0.01 µM) was 0.664 and the relative viability (HCC-15; first compound 0.03162 µM) was 0.702. The relative viability (HCC-15; first compound 0.1 µM) was 0.72, the relative viability (HCC-15; first compound 0.3162 µM) was 0.766 and the relative viability (HCC-15; first compound 1 µM) was 0.64. The relative viability (NCI-H522; first compound 0.01 µM) was 0.711, the relative viability (NCI-H522; first compound 0.03162 µM) was 0.683 and the relative viability (NCI-H522; first compound 0.1 µM) was 0.696. It also gave a relative viability (NCI-H522; first compound 0.3162 µM) of 0.755, a relative viability (NCI-H522; first compound 1 µM) of 0.807 and a relative viability (NCI-H1623; first compound 0.01 µM) of 0.44. For the same molecule, the relative viability (NCI-H1623; first compound 0.03162 µM) was 0.464, the relative viability (NCI-H1623; first compound 0.1 µM) was 0.414 and the relative viability (NCI-H1623; first compound 0.3162 µM) was 0.424. The relative viability (NCI-H1623; first compound 1 µM) was 0.378, the relative viability (NCI-H1648; first compound 0.01 µM) was 0.244 and the relative viability (NCI-H1648; first compound 0.03162 µM) was 0.257. It also gave a relative viability (NCI-H1648; first compound 0.1 µM) of 0.27, a relative viability (NCI-H1648; first compound 0.3162 µM) of 0.253 and a relative viability (NCI-H1648; first compound 1 µM) of 0.294.

Molecule NC(=O)Nc1cc(-c2cccc(F)c2)sc1C(=O)N[C@H]1CCCNC1 [AZD7762] + N=C(N)NC(=N)NCCc1ccccc1 [Phenformin] (partner 250 µM) has a relative viability (LCLC-103H; first compound 0.01 µM) of 0.376, a relative viability (LCLC-103H; first compound 0.03162 µM) of 0.35 and a relative viability (LCLC-103H; first compound 0.1 µM) of 0.352. The relative viability (LCLC-103H; first compound 0.3162 µM) was 0.312, the relative viability (LCLC-103H; first compound 1 µM) was 0.339 and the relative viability (UMC-11; first compound 0.01 µM) was 0.372. The relative viability (UMC-11; first compound 0.03162 µM) was 0.322, the relative viability (UMC-11; first compound 0.1 µM) was 0.238 and the relative viability (UMC-11; first compound 0.3162 µM) was 0.25. The relative viability (UMC-11; first compound 1 µM) was 0.234, the relative viability (HCC-15; first compound 0.01 µM) was 0.483 and the relative viability (HCC-15; first compound 0.03162 µM) was 0.475. For the same molecule, the relative viability (HCC-15; first compound 0.1 µM) was 0.432, the relative viability (HCC-15; first compound 0.3162 µM) was 0.473 and the relative viability (HCC-15; first compound 1 µM) was 0.445. The relative viability (NCI-H522; first compound 0.01 µM) was 0.668, the relative viability (NCI-H522; first compound 0.03162 µM) was 0.711 and the relative viability (NCI-H522; first compound 0.1 µM) was 0.635. It also gave a relative viability (NCI-H522; first compound 0.3162 µM) of 0.752, a relative viability (NCI-H522; first compound 1 µM) of 0.597 and a relative viability (A549; first compound 0.01 µM) of 0.167. It also gave a relative viability (A549; first compound 0.03162 µM) of 0.183, a relative viability (A549; first compound 0.1 µM) of 0.187 and a relative viability (A549; first compound 0.3162 µM) of 0.188. For the same molecule, the relative viability (A549; first compound 1 µM) was 0.184, the relative viability (NCI-H1623; first compound 0.01 µM) was 0.557 and the relative viability (NCI-H1623; first compound 0.03162 µM) was 0.606. The relative viability (NCI-H1623; first compound 0.1 µM) was 0.594, the relative viability (NCI-H1623; first compound 0.3162 µM) was 0.632 and the relative viability (NCI-H1623; first compound 1 µM) was 0.497.
